These are literature values, as cited in patent publication US20090239285A1, “TANDEM REAPEAT DNA CONSTRUCTS PRODUCING PROTEINS THAT ATTACK PLANT PATHOGENIC VIRUSES, FUNGI, AND BACTERIA BY DISRUPTING TRANSCRIPTION FACTORS ESSENTIAL FOR REPLICATION THEREOF IN PLANTS” (priority 2008, published 2009).

The data set deals with rice blast fungus Magnaporthe grisea. Particulars: PA treated plants; doses in range 0.5 mg/mL; cited from earlier work.

As for `O=C(O)c1ccccn1` [Picolinic acid, 2-pyridine carboxylic acid], the “resistance against M. grisea” value was “enhanced”.
